Measured values published in ChEMBL document CHEMBL5241078, “Emerging trends of receptor-mediated tumor targeting peptides: A review with perspective from molecular imaging modalities” (Eur J Med Chem, 2021).

Target: T1, Gastrin/cholecystokinin type B receptor (Homo sapiens, UniProt P32239)
T1 sequence (P32239 whole entry): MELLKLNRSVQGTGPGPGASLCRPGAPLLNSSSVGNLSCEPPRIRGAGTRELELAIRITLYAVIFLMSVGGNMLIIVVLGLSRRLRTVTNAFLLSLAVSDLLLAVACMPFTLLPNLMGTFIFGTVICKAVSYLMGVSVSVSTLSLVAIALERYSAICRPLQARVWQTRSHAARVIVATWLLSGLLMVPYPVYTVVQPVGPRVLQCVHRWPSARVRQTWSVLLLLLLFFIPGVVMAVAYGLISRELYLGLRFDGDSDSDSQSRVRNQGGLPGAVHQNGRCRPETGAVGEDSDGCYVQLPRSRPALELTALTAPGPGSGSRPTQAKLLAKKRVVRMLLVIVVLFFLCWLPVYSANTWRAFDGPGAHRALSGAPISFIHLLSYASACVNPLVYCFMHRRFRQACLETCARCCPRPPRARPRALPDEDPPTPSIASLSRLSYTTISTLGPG
Assay: Binding affinity to human CCK2R expressed in human A-431 cells
Format: cell-based

| IC50 [nM] | Structure (SMILES) |
| --- | --- |
| 2.54 | CSCCC[C@H](NC(=O)[C@H](Cc1c[nH]c2ccccc12)NC(=O)[C@H]1CCCCNC(=O)[C@H](NC(=O)c2ccc(NN)nc2)CCC(=O)N[C@@H](C)C(=O)N[C@@H](Cc2ccc(O)cc2)C(=O)N1)C(=O)N[C@@H](CC(=O)O)C(=O)N[C@@H](Cc1ccccc1)C(N)=O |
| 3.23 | CCCCC[C@H](NC(=O)[C@H](Cc1c[nH]c2ccccc12)NC(=O)[C@H]1CCCCNC(=O)[C@H](NC(=O)c2ccc(NN)nc2)CCC(=O)N[C@@H](C)C(=O)N[C@@H](Cc2ccc(O)cc2)C(=O)N1)C(=O)N[C@@H](CC(=O)O)C(=O)N[C@@H](Cc1ccccc1)C(N)=O |
